Reference: patent US20250270213A1, “PI3Ka INHIBITORS” (Synnovation Therapeutics, Inc., priority 2022, published 2025)

The compounds below were run on T47D (PIK3CA H1047R) cells (assay: pS473 AKT assay with 2.5% FBS, T47D cells). Conditions: Homo sapiens, pSer473 AKT, DMEM with 2.5% FBS, 2 h treatment, read-out: T47D_IC50.
Format: cell-based
Summary of the method: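 T47D (PIK3CA H1047R) cells were switched to DMEM with 2.5% FBS and exposed to compounds for 2 h. After paraformaldehyde fixation, pSer473 AKT was detected by in-cell ELISA (rabbit primary, HRP anti-rabbit secondary, chemiluminescence); IC50 values were fitted from the concentration series.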

IC50, < 1000 nM:
Cc1cc(C(CO)Nc2ccc(Cl)nc2-c2cnn(C)c2C)c2c(c1)c(=O)n1c3c2cnn3CCC1 (stereo not shown) [Compound 330, 10-(1-((6-chloro-2-(1,5-dimethyl-1H-pyrazol-4-yl)pyridin-3-yl)amino)-2-hydroxyethyl)-8-methyl-4,5-dihydro-3H,6H-2,2a,5a-triazaaceanthrylen-6-one]
Cc1cc(C(CO)Nc2ccc(Cl)nc2-c2nnco2)c2c(c1)c(=O)n1c3c2cnn3CCC1 (stereo not shown) [Compound 331, 10-(1-((6-chloro-2-(1,3,4-oxadiazol-2-yl)pyridin-3-yl)amino)-2-hydroxyethyl)-8-methyl-4,5-dihydro-3H,6H-2,2a,5a-triazaaceanthrylen-6-one]
Cc1cc(C(CO)Nc2ccc(Cl)nc2-c2nnn(C)n2)c2c(c1)c(=O)n1c3c2cnn3CCC1 (stereo not shown) [Compound 332, 10-(1-((6-chloro-2-(2-methyl-2H-tetrazol-5-yl)pyridin-3-yl)amino)-2-hydroxyethyl)-8-methyl-4,5-dihydro-3H,6H-2,2a5a-triazaaceanthrylen-6-one]
Cc1cc(C(CO)Nc2ccc(Cl)nc2-c2ccc3c(c2)CN(C)C3=O)c2c(c1)c(=O)n1c3c2cnn3CCC1 (stereo not shown) [Compound 333, 10-(1-((6-chloro-2-(2-methyl-1-oxoisoindolin-5-yl)pyridin-3-yl)amino)-2-hydroxyethyl)-8-methyl-4,5-dihydro-3H,6H-2,2a,5a-triazaaceanthrylen-6-one]
CCn1ncc2c3c(C(CN4CCN(C)CC4)Nc4ccc(Cl)nc4-c4cnn(C)c4)cc(C)cc3c(=O)n(C)c21 (stereo not shown) [Compound 334, 9-(1-((6-Chloro-2-(1-methyl-1H-pyrazol-4-yl)pyridin-3-yl)amino)-2-(4-methylpiperazin-1-yl)ethyl)-3-ethyl-4,7-dimethyl-3,4-dihydro-5H-pyrazolo[3,4-c]isoquinolin-5-one]
Cc1cc(C(C)Nc2ccccc2C(=O)O)c2c(c1)c(=O)n(C)c1cncn21 (stereo not shown) [Compound I-4, 2-((1-(4,7-Dimethyl-5-oxo-4,5-dihydroimidazo[1,5-a]quinazolin-9-yl)ethyl)amino)benzoic acid]
CCc1ncn2c3c(C(C)Nc4ccccc4C(=O)O)cc(C)cc3c(=O)n(C)c12 (stereo not shown) [Compound I-5, 2-((1-(3-Ethyl-4,7-dimethyl-5-oxo-4,5-dihydroimidazo[1,5-a]quinazolin-9-yl)ethyl)amino)benzoic acid]
Cc1cc(C(C)Nc2ccccc2C(=O)O)c2c(c1)c(=O)n(C)c1c(-c3ccccn3)ncn21 (stereo not shown) [Compound I-6, 2-((1-(4,7-Dimethyl-5-oxo-3-(pyridin-2-yl)-4,5-dihydroimidazo[1,5-a]quinazolin-9-yl)ethyl)amino)benzoic acid]
Cc1cc(C(C)Nc2ccccc2C(=O)O)c2c(c1)c(=O)n(C)c1c(C)ncn21 (stereo not shown) [Compound I-7, 2-((1-(3,4,7-Trimethyl-5-oxo-4,5-dihydroimidazo[1,5-a]quinazolin-9-yl)ethyl)amino)benzoic acid]
Cc1cc(C(C)Nc2ccc(C)nc2C(=O)O)c2c(c1)c(=O)n(C)c1c(C)ncn21 (stereo not shown) [Compound I-8, 6-Methyl-3-((1-(3,4,7-trimethyl-5-oxo-4,5-dihydroimidazo[1,5-a]quinazolin-9-yl)ethyl)amino)picolinic acid]
CCc1ncn2c3c(C(C)Nc4ccccc4C(=O)O)cc(Cl)cc3c(=O)n(C)c12 (stereo not shown) [Compound I-9, 2-((1-(7-Chloro-3-ethyl-4-methyl-5-oxo-4,5-dihydroimidazo[1,5-a]quinazolin-9-yl)ethyl)amino)benzoic acid]
CC(Nc1ccccc1C(=O)O)c1cc(Cl)cc2c(=O)n(C)c3cncn3c12 (stereo not shown) [Compound I-10, 2-((1-(7-Chloro-4-methyl-5-oxo-4,5-dihydroimidazo[1,5-a]quinazolin-9-yl)ethyl)amino)benzoic acid]
Cc1ncn2c3c(C(C)Nc4ccccc4C(=O)O)cc(Cl)cc3c(=O)n(C)c12 (stereo not shown) [Compound I-11, 2-((1-(7-Chloro-3,4-dimethyl-5-oxo-4,5-dihydroimidazo[1,5-a]quinazolin-9-yl)ethyl)amino)benzoic acid]
CCn1c(=O)c2cc(Cl)cc(C(C)Nc3ccccc3C(=O)O)c2n2cncc12 (stereo not shown) [Compound I-12, 2-((1-(7-Chloro-4-ethyl-5-oxo-4,5-dihydroimidazo[1,5-a]quinazolin-9-yl)ethyl)amino)benzoic acid]
CCc1ncn2c3c(C(C)Nc4ccccc4C(=O)O)cc(Cl)cc3c(=O)n(CC)c12 (stereo not shown) [Compound I-13, 2-((1-(7-Chloro-3,4-diethyl-5-oxo-4,5-dihydroimidazo[1,5-a]quinazolin-9-yl)ethyl)amino)benzoic acid]
Cc1cc(C(C)Nc2ccccc2C(=O)O)c2c(c1)c(=O)n(C)c1nccn21 (stereo not shown) [Compound I-14, 2-((1-(4,7-Dimethyl-5-oxo-4,5-dihydroimidazo[1,2-a]quinazolin-9-yl)ethyl)amino)benzoic acid]
Cc1cc(C(C)Nc2ccccc2C(=O)O)c2c(c1)c(=O)n(C)c1ncnn21 (stereo not shown) [Compound I-15, 2-((1-(4,7-Dimethyl-5-oxo-4,5-dihydro-[1,2,4]triazolo[1,5-a]quinazolin-9-yl)ethyl)amino)benzoic acid]
Cc1cc(C(C)Nc2ccccc2C(=O)O)c2c(c1)c(=O)n(C)c1c2cnn1C (stereo not shown) [Compound I-16, 2-((1-(3,4,7-Trimethyl-5-oxo-4,5-dihydro-3H-pyrazolo[3,4-c]isoquinolin-9-yl)ethyl)amino)benzoic acid]
Cc1cc(C(C)Nc2ccc(Cl)nc2C(=O)O)c2c(c1)c(=O)n(C)c1c2cnn1C (stereo not shown) [Compound I-17, 6-Chloro-3-((1-(3,4,7-trimethyl-5-oxo-4,5-dihydro-3H-pyrazolo[3,4-c]isoquinolin-9-yl)ethyl)amino)picolinic acid]
CCn1ncc2c3c(C(C)Nc4ccccc4C(=O)O)cc(C)cc3c(=O)n(C)c21 (stereo not shown) [Compound I-18, 2-((1-(3-Ethyl-4,7-dimethyl-5-oxo-4,5-dihydro-3H-pyrazolo[3,4-c]isoquinolin-9-yl)ethyl)amino)benzoic acid]
CCn1ncc2c3c(C(C)Nc4ccc(Cl)nc4C(=O)O)cc(C)cc3c(=O)n(C)c21 (stereo not shown) [Compound I-19, 6-Chloro-3-((1-(3-ethyl-4,7-dimethyl-5-oxo-4,5-dihydro-3H-pyrazolo[3,4-c]isoquinolin-9-yl)ethyl)amino)picolinic acid]
CCn1ncc2c3c(C(C)Nc4ccc(C)nc4C(=O)O)cc(C)cc3c(=O)n(C)c21 (stereo not shown) [Compound I-20, 3-((1-(3-Ethyl-4,7-dimethyl-5-oxo-4,5-dihydro-3H-pyrazolo[3,4-c]isoquinolin-9-yl)ethyl)amino)-6-methylpicolinic acid]
CCn1c(=O)c2cc(C)cc(C(C)Nc3ccccc3C(=O)O)c2c2cnn(C)c21 (stereo not shown) [Compound I-21, 2-((1-(4-Ethyl-3,7-dimethyl-5-oxo-4,5-dihydro-3H-pyrazolo[3,4-c]isoquinolin-9-yl)ethyl)amino)benzoic acid]
CCn1c(=O)c2cc(C)cc(C(C)Nc3ccc(Cl)nc3C(=O)O)c2c2cnn(C)c21 (stereo not shown) [Compound I-22, 6-Chloro-3-((1-(4-ethyl-3,7-dimethyl-5-oxo-4,5-dihydro-3H-pyrazolo[3,4-c]isoquinolin-9-yl)ethyl)amino)picolinic acid]
CCn1ncc2c3c(C(C)Nc4ccccc4C(=O)O)cc(C)cc3c(=O)n(CC)c21 (stereo not shown) [Compound I-23, 2-((1-(3,4-Diethyl-7-methyl-5-oxo-4,5-dihydro-3H-pyrazolo[3,4-c]isoquinolin-9-yl)ethyl)amino)benzoic acid]
CCn1ncc2c3c(C(C)Nc4ccc(F)cc4C(=O)O)cc(C)cc3c(=O)n(CC)c21 (stereo not shown) [Compound I-24, 2-((1-(3,4-Diethyl-7-methyl-5-oxo-4,5-dihydro-3H-pyrazolo[3,4-c]isoquinolin-9-yl)ethyl)amino)-5-fluorobenzoic acid]
CCn1ncc2c3c(C(C)Nc4ccc(C)nc4C(=O)O)cc(C)cc3c(=O)n(CC)c21 (stereo not shown) [Compound I-25, 3-((1-(3,4-Diethyl-7-methyl-5-oxo-4,5-dihydro-3H-pyrazolo[3,4-c]isoquinolin-9-yl)ethyl)amino)-6-methylpicolinic acid]
CCCn1cc2c3c(C(C)Nc4ccccc4C(=O)O)cc(C)cc3c(=O)n(C)c2n1 (stereo not shown) [Compound I-26, 2-((1-(4,7-Dimethyl-5-oxo-2-propyl-4,5-dihydro-2H-pyrazolo[3,4-c]isoquinolin-9-yl)ethyl)amino)benzoic acid]
Cc1cc(C(C)Nc2ccccc2C(=O)O)c2c(c1)c(=O)n(C)c1nn(C3CCOCC3)cc21 (stereo not shown) [Compound I-27, 2-((1-(4,7-Dimethyl-5-oxo-2-(tetrahydro-2H-pyran-4-yl)-4,5-dihydro-2H-pyrazolo[3,4-c]isoquinolin-9-yl)ethyl)amino)benzoic acid]
Cc1cc(C(C)Nc2ccccc2C(=O)O)c2c(c1)c(=O)n(C)c1nn(CCc3ccccc3)cc21 (stereo not shown) [Compound I-28, 2-((1-(4,7-Dimethyl-5-oxo-2-phenethyl-4,5-dihydro-2/I-pyrazolo[3,4-c]isoquinolin-9-yl)ethyl)amino)benzoic acid]
Cc1cc(C(C)Nc2ccccc2C(=O)O)c2c(c1)c(=O)n(C)c1nn(-c3ccnc(F)c3)cc21 (stereo not shown) [Compound I-29, 2-((1-(2-(2-Fluoropyridin-4-yl)-4,7-dimethyl-5-oxo-4,5-dihydro-2H-pyrazolo[3,4-c]isoquinolin-9-yl)ethyl)amino)benzoic acid]
